Reference: patent US20260184748A1, “COMPOSITIONS COMPRISING OCTADECANEUROPEPTIDES (ODN) AND SYNTHETIC DERIVATIVES THEREOF AND METHODS OF USE FOR MODULATION OF FOOD INTAKE, OBESITY, BODY WEIGHT, NAUSEA, AND EMESIS” (The Trustees of the University of Pennsylvania, priority 2022, published 2026)
Values joined by “and” are separate entries in the source; they are usually repeats but may differ in a detail not shown here. Equal entries are not always repeated. Where two headings read alike, the source gives them in different places. Where a SMILES comes first, the peptide text is derived from it. Where no end group is shown, it is not given here.

Experiments:
PTGIR = PTGIR (Homo sapiens, UniProt P43119); test: Arrestin agonist mode; assay type: cell-based; conditions: read-out: RC50 (the source's name)
PTGIR, sequence (P43119 whole entry): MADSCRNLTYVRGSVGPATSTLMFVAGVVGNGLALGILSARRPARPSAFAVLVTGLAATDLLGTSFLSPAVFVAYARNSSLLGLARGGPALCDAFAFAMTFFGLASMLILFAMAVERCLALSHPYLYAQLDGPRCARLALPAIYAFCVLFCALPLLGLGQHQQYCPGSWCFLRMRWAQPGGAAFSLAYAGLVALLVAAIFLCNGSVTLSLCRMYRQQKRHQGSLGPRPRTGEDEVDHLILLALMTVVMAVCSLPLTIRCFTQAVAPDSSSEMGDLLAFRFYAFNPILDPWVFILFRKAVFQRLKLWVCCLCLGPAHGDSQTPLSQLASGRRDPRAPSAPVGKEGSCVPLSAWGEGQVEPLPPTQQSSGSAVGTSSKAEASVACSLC

GPCR panel = test: gpcrMAX agonist mode (beta-arrestin recruitment), GPCR Biosensor Assays; assay type: cell-based; set-up: Max Response: unit not given here
P2RY12 = P2RY12 (Homo sapiens, UniProt Q9H244); test: Arrestin agonist mode; assay type: cell-based; conditions: read-out: RC50 (the source's name)
P2RY12, sequence (Q9H244 whole entry, one chain of several): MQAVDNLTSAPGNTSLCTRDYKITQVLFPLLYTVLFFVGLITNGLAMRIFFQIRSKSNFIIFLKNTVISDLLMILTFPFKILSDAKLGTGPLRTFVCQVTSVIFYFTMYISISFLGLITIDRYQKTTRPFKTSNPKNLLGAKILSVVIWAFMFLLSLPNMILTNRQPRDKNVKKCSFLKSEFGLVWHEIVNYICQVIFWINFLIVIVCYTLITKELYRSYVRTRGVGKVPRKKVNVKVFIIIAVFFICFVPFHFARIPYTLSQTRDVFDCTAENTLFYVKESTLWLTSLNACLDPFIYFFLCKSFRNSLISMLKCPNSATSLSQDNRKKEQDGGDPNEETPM

GPR109B = GPR109B (Homo sapiens, UniProt P49019); test: Arrestin agonist mode; assay type: cell-based; conditions: read-out: RC50 (the source's name)
GPR109B, sequence (P49019 whole entry): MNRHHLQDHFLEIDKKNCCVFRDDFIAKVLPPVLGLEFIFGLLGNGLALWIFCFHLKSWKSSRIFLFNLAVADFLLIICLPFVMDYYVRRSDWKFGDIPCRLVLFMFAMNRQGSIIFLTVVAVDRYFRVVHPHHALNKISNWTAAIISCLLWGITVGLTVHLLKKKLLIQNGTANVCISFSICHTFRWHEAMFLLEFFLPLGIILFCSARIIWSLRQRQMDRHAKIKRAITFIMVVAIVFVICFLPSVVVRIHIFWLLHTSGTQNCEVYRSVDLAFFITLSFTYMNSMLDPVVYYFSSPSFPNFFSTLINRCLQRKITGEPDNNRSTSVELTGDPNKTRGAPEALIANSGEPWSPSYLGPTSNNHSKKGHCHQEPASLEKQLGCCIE

OXER1 = OXER1 (Homo sapiens, UniProt Q8TDS5); test: Arrestin agonist mode; assay type: cell-based; conditions: read-out: RC50 (the source's name)
OXER1, sequence (Q8TDS5 whole entry): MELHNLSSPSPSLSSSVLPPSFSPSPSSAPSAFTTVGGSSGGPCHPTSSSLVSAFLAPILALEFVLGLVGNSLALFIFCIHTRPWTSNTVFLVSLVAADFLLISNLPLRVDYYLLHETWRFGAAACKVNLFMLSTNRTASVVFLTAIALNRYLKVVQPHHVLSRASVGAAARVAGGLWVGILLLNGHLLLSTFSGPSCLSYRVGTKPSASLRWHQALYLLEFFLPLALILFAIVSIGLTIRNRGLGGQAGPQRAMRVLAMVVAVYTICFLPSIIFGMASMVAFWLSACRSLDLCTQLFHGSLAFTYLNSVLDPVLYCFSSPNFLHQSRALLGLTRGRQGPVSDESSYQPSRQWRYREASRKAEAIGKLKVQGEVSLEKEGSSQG

[1] = rat, in vivo
TBXA2R = TBXA2R (Homo sapiens, UniProt P21731); test: Arrestin agonist mode; assay type: cell-based; conditions: read-out: RC50 (the source's name)
TBXA2R, sequence (P21731 whole entry): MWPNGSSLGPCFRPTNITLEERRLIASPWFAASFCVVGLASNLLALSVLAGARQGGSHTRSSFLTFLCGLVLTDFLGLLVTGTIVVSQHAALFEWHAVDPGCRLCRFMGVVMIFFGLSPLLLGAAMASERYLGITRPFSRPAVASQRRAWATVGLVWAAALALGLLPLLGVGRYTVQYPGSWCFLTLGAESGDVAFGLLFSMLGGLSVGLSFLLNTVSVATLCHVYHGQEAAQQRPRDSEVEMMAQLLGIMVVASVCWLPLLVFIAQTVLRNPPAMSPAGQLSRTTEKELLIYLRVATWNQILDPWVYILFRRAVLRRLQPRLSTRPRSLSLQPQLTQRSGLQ

KISS1R = KISS1R (Homo sapiens, UniProt Q969F8); test: Arrestin agonist mode; assay type: cell-based; conditions: read-out: RC50 (the source's name)
KISS1R, sequence (Q969F8 whole entry): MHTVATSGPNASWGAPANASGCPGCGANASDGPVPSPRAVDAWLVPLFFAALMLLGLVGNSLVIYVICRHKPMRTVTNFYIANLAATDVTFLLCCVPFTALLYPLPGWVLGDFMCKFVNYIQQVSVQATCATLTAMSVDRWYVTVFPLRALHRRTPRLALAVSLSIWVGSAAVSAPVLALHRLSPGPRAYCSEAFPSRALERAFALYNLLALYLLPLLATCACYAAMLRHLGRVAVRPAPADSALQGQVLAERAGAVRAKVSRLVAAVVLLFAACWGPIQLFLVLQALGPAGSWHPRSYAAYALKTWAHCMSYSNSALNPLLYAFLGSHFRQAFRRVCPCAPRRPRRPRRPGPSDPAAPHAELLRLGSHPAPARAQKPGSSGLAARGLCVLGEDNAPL

[2] = rat, in vivo, ip
MLNR = MLNR (Homo sapiens, UniProt O43193); test: Arrestin agonist mode; assay type: cell-based; conditions: read-out: RC50 (the source's name)
MLNR, sequence (O43193 whole entry): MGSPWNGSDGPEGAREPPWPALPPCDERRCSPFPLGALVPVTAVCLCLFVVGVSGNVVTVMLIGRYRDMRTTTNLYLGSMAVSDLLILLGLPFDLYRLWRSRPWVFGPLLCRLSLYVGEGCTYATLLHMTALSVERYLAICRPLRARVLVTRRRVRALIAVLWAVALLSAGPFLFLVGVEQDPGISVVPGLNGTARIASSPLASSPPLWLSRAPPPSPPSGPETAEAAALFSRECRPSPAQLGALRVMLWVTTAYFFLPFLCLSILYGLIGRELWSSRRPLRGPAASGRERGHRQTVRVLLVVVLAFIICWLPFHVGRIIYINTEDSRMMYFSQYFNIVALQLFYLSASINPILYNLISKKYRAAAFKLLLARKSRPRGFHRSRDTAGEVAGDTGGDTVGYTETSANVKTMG

GPR119 = GPR119 (Homo sapiens, UniProt Q8TDV5); test: Arrestin agonist mode; assay type: cell-based; conditions: read-out: RC50 (the source's name)
GPR119, sequence (Q8TDV5 whole entry): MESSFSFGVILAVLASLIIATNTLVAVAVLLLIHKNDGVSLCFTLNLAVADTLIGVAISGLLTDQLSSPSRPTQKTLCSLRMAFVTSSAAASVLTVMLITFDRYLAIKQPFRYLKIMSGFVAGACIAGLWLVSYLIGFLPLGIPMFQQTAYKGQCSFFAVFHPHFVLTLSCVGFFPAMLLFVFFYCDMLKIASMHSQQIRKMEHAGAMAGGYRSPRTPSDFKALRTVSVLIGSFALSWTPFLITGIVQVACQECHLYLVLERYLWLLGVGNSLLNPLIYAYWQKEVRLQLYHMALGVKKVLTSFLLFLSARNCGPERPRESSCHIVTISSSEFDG

PTAFR = PTAFR (Homo sapiens, UniProt P25105); test: Arrestin agonist mode; assay type: cell-based; conditions: read-out: RC50 (the source's name)
P2RY6 = P2RY6 (Homo sapiens, UniProt Q15077); test: Arrestin agonist mode; assay type: cell-based; conditions: read-out: RC50 (the source's name)
P2RY6, sequence (Q15077 whole entry): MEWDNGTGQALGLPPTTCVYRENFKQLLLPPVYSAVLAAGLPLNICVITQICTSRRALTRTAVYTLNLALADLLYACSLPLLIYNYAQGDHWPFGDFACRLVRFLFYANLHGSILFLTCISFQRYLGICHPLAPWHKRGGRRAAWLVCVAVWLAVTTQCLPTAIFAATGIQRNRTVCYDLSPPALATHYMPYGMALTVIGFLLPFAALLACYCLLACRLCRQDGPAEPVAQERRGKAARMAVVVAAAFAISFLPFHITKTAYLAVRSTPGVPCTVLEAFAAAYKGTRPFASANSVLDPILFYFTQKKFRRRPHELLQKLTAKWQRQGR

P2RY4 = P2RY4 (Homo sapiens, UniProt P51582); test: Arrestin agonist mode; assay type: cell-based; conditions: read-out: RC50 (the source's name)
P2RY4, sequence (P51582 whole entry): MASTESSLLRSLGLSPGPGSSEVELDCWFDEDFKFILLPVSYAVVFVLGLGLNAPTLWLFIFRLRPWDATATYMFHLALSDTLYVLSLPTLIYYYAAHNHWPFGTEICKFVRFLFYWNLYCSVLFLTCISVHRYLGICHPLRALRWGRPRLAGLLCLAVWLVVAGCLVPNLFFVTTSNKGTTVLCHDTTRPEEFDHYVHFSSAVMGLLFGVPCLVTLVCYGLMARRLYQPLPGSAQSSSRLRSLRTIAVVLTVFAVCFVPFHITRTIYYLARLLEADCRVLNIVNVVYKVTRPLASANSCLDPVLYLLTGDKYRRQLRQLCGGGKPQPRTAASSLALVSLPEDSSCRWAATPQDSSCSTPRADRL

P2RY2 = P2RY2 (Homo sapiens, UniProt P41231); test: Arrestin agonist mode; assay type: cell-based; conditions: read-out: RC50 (the source's name)
P2RY2, sequence (P41231 whole entry): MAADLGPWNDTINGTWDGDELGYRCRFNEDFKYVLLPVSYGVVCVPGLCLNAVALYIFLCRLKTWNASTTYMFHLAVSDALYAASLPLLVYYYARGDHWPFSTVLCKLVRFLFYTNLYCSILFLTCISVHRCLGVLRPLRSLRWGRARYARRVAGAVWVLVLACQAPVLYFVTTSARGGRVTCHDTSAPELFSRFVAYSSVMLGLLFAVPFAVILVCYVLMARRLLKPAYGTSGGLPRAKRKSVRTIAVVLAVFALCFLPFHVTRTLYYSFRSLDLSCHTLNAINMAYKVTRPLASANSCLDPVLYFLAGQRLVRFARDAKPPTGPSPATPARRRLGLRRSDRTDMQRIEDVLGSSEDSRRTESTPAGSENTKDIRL

CCR2 = CCR2 (Homo sapiens, UniProt P41597); test: Arrestin agonist mode; assay type: cell-based; conditions: read-out: RC50 (the source's name)
CCR2, sequence (P41597 whole entry): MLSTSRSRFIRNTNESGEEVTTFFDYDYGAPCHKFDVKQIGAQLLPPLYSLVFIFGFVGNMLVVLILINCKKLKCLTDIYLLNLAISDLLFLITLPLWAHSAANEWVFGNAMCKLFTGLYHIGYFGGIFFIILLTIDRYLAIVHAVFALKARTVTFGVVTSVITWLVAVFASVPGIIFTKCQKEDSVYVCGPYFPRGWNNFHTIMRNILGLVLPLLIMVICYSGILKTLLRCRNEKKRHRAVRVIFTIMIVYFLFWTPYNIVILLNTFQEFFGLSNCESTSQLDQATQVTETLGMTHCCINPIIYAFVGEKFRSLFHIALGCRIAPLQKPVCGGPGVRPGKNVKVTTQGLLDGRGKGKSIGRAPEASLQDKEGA

[3] = Kaolin intake (pica) in rats; assay type: in vivo, rat
[4] = shrews; for emetic episodes: intraperitoneal
NPSR1B = NPSR1B (Homo sapiens, UniProt Q6W5P4); test: Arrestin agonist mode; assay type: cell-based; conditions: read-out: RC50 (the source's name)
NPSR1B, sequence (Q6W5P4 1-377 isoform Q6W5P4-4): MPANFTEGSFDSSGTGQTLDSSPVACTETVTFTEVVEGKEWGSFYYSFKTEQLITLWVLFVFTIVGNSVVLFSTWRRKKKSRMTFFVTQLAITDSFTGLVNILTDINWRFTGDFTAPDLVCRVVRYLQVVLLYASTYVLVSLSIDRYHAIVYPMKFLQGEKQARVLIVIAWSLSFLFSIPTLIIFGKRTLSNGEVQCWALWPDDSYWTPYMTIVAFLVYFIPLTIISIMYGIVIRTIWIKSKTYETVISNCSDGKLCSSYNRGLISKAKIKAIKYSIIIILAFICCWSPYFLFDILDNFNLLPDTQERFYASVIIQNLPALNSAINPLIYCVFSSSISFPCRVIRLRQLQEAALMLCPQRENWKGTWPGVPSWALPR

[5] = 24 h body weight change in rats; assay type: in vivo, rat; conditions: 4th ventricle injection
DBI protein expression = test: Hindbrain DBI immunohistochemistry and quantification; assay type: in vivo, rat; conditions: 4th ventricle Ex-4 0.3 μg/2 μL in 24 h fasted HFD-maintained rats
Description: Rats maintained on chow or HFD were either ad libitum fed or fasted for 24 h. […] Rats were deeply anesthetized with KAX and transcardially perfused with 0.1 M phosphate-buffered saline (PBS; pH 7.4) followed by 4% paraformaldehyde in 0.1 M PBS on ice. Brains were removed from the crania and post-fixed in 4% paraformaldehyde for 24 h, then stored in 20% sucrose in 0.1 M PBS at 4° C. until sunk. Coronal dorsal vagal complex (DVC) sections (30 μm) were sliced and collected directly onto slides (12-550-15; Superfrost Plus, Fisher Scientific) using a cryostat and stored at −80° C. until the start of immunohistochemistry (IHC). Briefly, tissue was washed with 0.1 M PBS 3 times for 8 minutes and then incubated in blocking solution [5% normal donkey serum (Jackson Immunoresearch) in PBST; PBS with 0.3% triton X] followed by overnight incubation in rabbit anti-DBI primary antibody (1:500; ab231910, Abcam) and chicken anti-vimentin primary antibody (1:2000; ab24525, Abcam) at 4° C. […] Slides were visualized using fluorescence microscopy (BZ-X810, Keyence). Images analysis to quantify the fluorescent intensity of DBI protein staining in the nucleus solitary tractus (NTS) and area postrema (AP) as well as the % colocalization of DBI and vimentin staining in the AP, subpostrema, and 4th ventricle boarder was done using the HALO@FISH-IF and Area Quantification FL modules.

CC#CCC(C)[C@H](O)/C=C/[C@@H]1[C@H]2c3cccc(CCCC(=O)O)c3O[C@H]2C[C@H]1O (mixture of isomers) [Beraprost]
EC50 (PTGIR): 219 nM

COc1ccc2[nH]c(I)c(CCNC(C)=O)c2c1 [2-Iodomelatonin]
EC80 (GPCR panel): 2.77 nM
Max Response (GPCR panel): 102.67

CSc1nc(N)c2ncn([C@@H]3O[C@H](COP(=O)(O)OP(=O)(O)O)[C@@H](O)[C@H]3O)c2n1 [2-methylthio-ADP]
EC50 (P2RY12): 2.72 nM

CCCCCC(O)CC(=O)O (stereo not shown) [3-Hydroxyoctanoic Acid]
EC50 (GPR109B): 373000 nM

CCCCC/C=C\C/C=C\C/C=C\C=C\C(=O)CCCC(=O)O [5-OxoETE]
EC50 (OXER1): 1140 nM

CC(C)C[C@H](NC(=O)CNC(=O)[C@@H]1CCCN1C(=O)[C@@H](N)CCCNC(=N)N)C(=O)N[C@H](CC(C)C)C(=O)N[C@@H](CC(=O)O)C(=O)N[C@@H](CC(C)C)C(=O)N[C@@H](CCCCN)C(N)=O [AntOP, Arg-Pro-Gly-Leu-(D-Leu)-Asp-Leu-Lys] (HELM PEPTIDE1{R.P.G.L.[dL].D.L.K.[am]}$$$$V2.0)
effect of pretreatment on Ex-4-induced kaolin intake [1]: did not significantly elevate kaolin intake relative to controls

CCCCCCC(C)(C)c1ccc([C@@H]2C[C@H](O)CC[C@H]2CCCO)c(O)c1 [CP55940]
Max Response (GPCR panel): 104.27 and 99.599

CC(C)C[C@H](NC(=O)[C@H](CCCCN)NC(=O)CNC(=O)[C@H](CC(C)C)NC(=O)[C@@H](NC(=O)[C@@H]1CSSC[C@H](N)C(=O)N[C@@H](CO)C(=O)N[C@@H](CC(N)=O)C(=O)N[C@@H](CC(C)C)C(=O)N[C@@H](CO)C(=O)N[C@@H]([C@@H](C)O)C(=O)N1)C(C)C)C(=O)N[C@@H](CO)C(=O)N[C@@H](CCC(N)=O)C(=O)N[C@@H](CCC(=O)O)C(=O)N[C@@H](CC(C)C)C(=O)N[C@@H](Cc1c[nH]cn1)C(=O)N[C@@H](CCCCN)C(=O)N[C@@H](CC(C)C)C(=O)N[C@@H](CCC(N)=O)C(=O)N[C@H](C(=O)N[C@@H](Cc1ccc(O)cc1)C(=O)N1CCC[C@H]1C(=O)N[C@@H](CCCNC(=N)N)C(=O)N[C@H](C(=O)N[C@@H](CC(N)=O)C(=O)N[C@H](C(=O)NCC(=O)N[C@@H](CO)C(=O)NCC(=O)N[C@H](C(=O)N1CCC[C@H]1C(N)=O)[C@@H](C)O)[C@@H](C)O)[C@@H](C)O)[C@@H](C)O [Calcitonin]
Max Response (GPCR panel): 102.54 and 108.07 and 103.06

O=C(O)CCC/C=C\C[C@@H]1[C@@H](/C=C/[C@@H](O)COc2ccc(I)cc2)[C@H]2CC[C@@H]1O2 [I-BOP]
EC50 (TBXA2R): 21.3 nM

CC(C)C[C@H](NC(=O)CNC(=O)[C@H](Cc1ccccc1)NC(=O)[C@H](CO)NC(=O)[C@H](CC(N)=O)NC(=O)[C@H](Cc1c[nH]c2ccccc12)NC(=O)[C@H](CC(N)=O)NC(=O)[C@@H](N)Cc1ccc(O)cc1)C(=O)N[C@@H](CCCNC(=N)N)C(=O)N[C@@H](Cc1ccccc1)C(N)=O [Kisspeptin-10]
EC50 (KISS1R): 17.6 nM

CCCCCCCCCCCCCCCC(=O)N[C@@H](CCC(=O)NCCCC[C@H](NC(=O)[C@H](C)NC(=O)[C@H](C)NC(=O)[C@H](CCC(N)=O)NC(=O)CNC(=O)[C@H](CCC(=O)O)NC(=O)[C@H](CC(C)C)NC(=O)[C@H](Cc1ccc(O)cc1)NC(=O)[C@H](CO)NC(=O)[C@H](CO)NC(=O)[C@@H](NC(=O)[C@H](CC(=O)O)NC(=O)[C@H](CO)NC(=O)[C@@H](NC(=O)[C@H](Cc1ccccc1)NC(=O)[C@@H](NC(=O)CNC(=O)[C@H](CCC(=O)O)NC(=O)[C@H](C)NC(=O)[C@@H](N)Cc1cnc[nH]1)[C@@H](C)O)[C@@H](C)O)C(C)C)C(=O)N[C@@H](CCC(=O)O)C(=O)N[C@@H](Cc1ccccc1)C(=O)N[C@H](C(=O)N[C@@H](C)C(=O)N[C@@H](Cc1c[nH]c2ccccc12)C(=O)N[C@@H](CC(C)C)C(=O)N[C@H](C(=O)N[C@@H](CCCNC(=N)N)C(=O)NCC(=O)N[C@@H](CCCNC(=N)N)C(=O)NCC(=O)O)C(C)C)[C@@H](C)CC)C(=O)O [Liraglutide, liraglutide]
kaolin intake [2]: Kaolin intake was increased

CC[C@H](C)[C@H](NC(=O)[C@@H]1CCCN1C(=O)[C@@H](NC(=O)[C@@H](N)Cc1ccccc1)C(C)C)C(=O)N[C@@H](Cc1ccccc1)C(=O)N[C@H](C(=O)N[C@@H](Cc1ccc(O)cc1)C(=O)NCC(=O)N[C@@H](CCC(=O)O)C(=O)N[C@@H](CC(C)C)C(=O)N[C@@H](CCC(N)=O)C(=O)N[C@@H](CCCNC(=N)N)C(=O)N[C@@H](CCSC)C(=O)N[C@@H](CCC(N)=O)C(=O)N[C@@H](CCC(=O)O)C(=O)N[C@@H](CCCCN)C(=O)N[C@@H](CCC(=O)O)C(=O)N[C@@H](CCCNC(=N)N)C(=O)N[C@@H](CC(N)=O)C(=O)N[C@@H](CCCCN)C(=O)NCC(=O)N[C@@H](CCC(N)=O)C(=O)O)[C@@H](C)O [Motilin]
EC50 (MLNR): 1.59 nM

CCCCCCCC/C=C\CCCCCCCC(=O)NCCO [Oleoyl Ethanolamide]
EC50 (GPR119): 1840 nM

CCCCCCCCCCCCCCCCOC[C@H](COP(=O)([O-])OCC[N+](C)(C)C)OC(C)=O [PAF]
EC50 (PTAFR): 3.82 nM

CC[C@H](C)[C@H](NC(=O)CNC(=O)[C@H](CCCNC(=N)N)NC(=O)[C@H](CO)NC(=O)[C@H](C)NC(=O)[C@H](Cc1ccc(O)cc1)NC(=O)[C@H](Cc1c[nH]c2ccccc12)NC(=O)[C@H](C)NC(=O)[C@@H]1CCCN1C(=O)[C@H](CC(N)=O)NC(=O)[C@@H](NC(=O)[C@H](CC(=O)O)NC(=O)[C@@H]1CCCN1C(=O)[C@@H](NC(=O)[C@H](CCCNC(=N)N)NC(=O)[C@@H](NC(=O)[C@H](CCC(=O)O)NC(=O)[C@H](CCSC)NC(=O)[C@H](CO)NC(=O)[C@H](Cc1c[nH]cn1)NC(=O)[C@H](CCCNC(=N)N)NC(=O)[C@H](Cc1c[nH]cn1)NC(=O)[C@@H](NC(=O)[C@H](CCCNC(=N)N)NC(=O)[C@@H](N)CO)[C@@H](C)O)[C@@H](C)CC)[C@@H](C)O)[C@@H](C)CC)C(=O)N[C@@H](CCCNC(=N)N)C(=O)N1CCC[C@H]1C(=O)N[C@H](C(=O)NCC(=O)N[C@@H](CCCNC(=N)N)C(=O)N[C@@H](Cc1ccccc1)C(N)=O)C(C)C [PrRP-31]
EC80 (GPCR panel): 10.72 nM
Max Response (GPCR panel): 101.19

O=c1ccn([C@@H]2O[C@H](COP(=O)(O)OP(=O)(O)O)[C@@H](O)[C@H]2O)c(=O)[nH]1 [UDP]
EC50 (P2RY6): 13.3 nM

O=c1ccn([C@@H]2O[C@H](COP(=O)(O)OP(=O)(O)OP(=O)(O)O)[C@@H](O)[C@H]2O)c(=O)[nH]1 [UTP]
EC50 (P2RY4): 126 nM
EC50 (P2RY2): 431 nM

CCL2: control agonist
EC50 (CCR2): 2.63 nM

DVNTDRPGLLDLK-NH2 [TDN]
kaolin intake ([3]; 4th ventricle injection, HFD-maintained rats): mildly increase kaolin intake in HFD-maintained rats
kaolin intake ([3]; 4th ventricle injection, chow-maintained rats): did not alter kaolin intake in chow rats
kaolin intake ([3]; lateral ventricle injection, chow and HFD rats): did not affect kaolin intake

QATVGDVNTDRPGLLDLK-NH2 [ODN]
emesis ([4]; intraperitoneal 500 μg/kg or 5000 μg/kg): without including emesis
emetic episodes ([4]; high ODN dose): no emetic episodes were observed
emetic episodes ([4]; low ODN dose): one of 9 shrews had an emetic episode

SFRNGVGTGMKKTSFQRAKS [Neuropeptide S]
EC50 (NPSR1B): 23.6 nM

exendin-4 [Ex-4]
24 h body weight change ([5]; HFD-maintained rats): decreased 24 h body weight change relative to controls
24 h body weight change ([5]; chow-maintained rats): decreased 24 h body weight change relative to controls
DBI protein expression in NTS and AP (DBI protein expression): not different between treatments in HFD-maintained rats
